Experiments:
[1] = tested on: blackgrass; test: Test C postemergence; format: in vivo, Alopecurus myosuroides; details: for Plant response rating (scale of 0 to 100 where 0 is no effect and 100 is complete control), Blackgrass: Postemergence, 31 g ai/ha, visually evaluated after 13 to 15 days; for Blackgrass plant response rating / Plant response rating, Blackgrass: postemergence; for Blackgrass plant response rating: 62 g ai/ha, scale 0 to 100
Method in brief: (§1)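 Visual control ratings on a 0–100 scale (100 = complete control) made against untreated controls after 13 to 15 days in greenhouse. Compounds applied in surfactant-containing solvent mixture, either preemergence to loam/sand-sown seeds or postemergence to 1- to 4-leaf plants (2–18 cm) in peat medium.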

[2] = tested on: wheat; test: Test A preemergence; format: in vivo, Triticum aestivum; details: preemergence; for Wheat plant response rating (0 to 100 scale): 125 g ai/ha, visual injury approx. 10 days after treatment; for Wheat plant response rating: 500 g ai/ha, visual injury after approx. 10 days, 0 to 100 scale (0 no effect, 100 complete control)
Method in brief: (§2)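 Ratings express plant response from 0 (no effect) to 100 (complete control), judged visually against untreated controls after approximately 10 days in the greenhouse. Preemergence applications were made as directed soil sprays onto seeded loam–sand mix, and postemergence applications onto 2–10 cm plants at one- to two-leaf stage.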

[3] = tested on: barnyardgrass; test: Test C postemergence; format: in vivo, Echinochloa crus-galli; details: for Plant response rating (scale of 0 to 100 where 0 is no effect and 100 is complete control), Barnyardgrass: Postemergence, 31 g ai/ha, visually evaluated after 13 to 15 days; for Barnyardgrass plant response rating / Plant response rating, Barnyardgrass: postemergence; for Barnyardgrass plant response rating: 62 g ai/ha, scale 0 to 100
Method in brief: as §1

[4] = tested on: crabgrass, large; test: Test C postemergence; format: in vivo, Digitaria sanguinalis; details: for Plant response rating (scale of 0 to 100 where 0 is no effect and 100 is complete control), Crabgrass, Large: Postemergence, 31 g ai/ha, visually evaluated after 13 to 15 days; for Crabgrass, Large plant response rating / Plant response rating, Crabgrass, Large: postemergence; for Crabgrass, Large plant response rating: 62 g ai/ha, scale 0 to 100
Method in brief: as §1

[5] = tested on: wheat; test: Test A postemergence; format: in vivo, Triticum aestivum; details: Postemergence
Method in brief: as §2

[6] = tested on: johnsongrass; test: Test C preemergence; format: in vivo, Sorghum halepense
Method in brief: as §1

[7] = tested on: velvetleaf; test: Test C postemergence; format: in vivo, Abutilon theophrasti; details: postemergence; for Plant response rating, Velvetleaf: 250 g ai/ha, scale 0 to 100 (0 no effect, 100 complete control); for Velvetleaf plant response rating: scale 0 to 100
Method in brief: as §1

[8] = tested on: nutsedge, yellow; test: Test C postemergence; format: in vivo, Cyperus esculentus; details: for Plant response rating (scale of 0 to 100 where 0 is no effect and 100 is complete control), Nutsedge, Yellow: Postemergence, 31 g ai/ha, visually evaluated after 13 to 15 days; for Nutsedge, Yellow plant response rating / Plant response rating, Nutsedge, Yellow: postemergence; for Nutsedge, Yellow plant response rating: 62 g ai/ha, scale 0 to 100
Method in brief: as §1

[9] = tested on: pigweed; test: Test A preemergence; format: in vivo, Amaranthus retroflexus; details: preemergence; for Pigweed plant response rating (0 to 100 scale): 125 g ai/ha, visual injury approx. 10 days after treatment; for Pigweed plant response rating: 500 g ai/ha, visual injury after approx. 10 days, 0 to 100 scale (0 no effect, 100 complete control)
Method in brief: as §2

[10] = tested on: foxtail, giant; test: Test C preemergence; format: in vivo, Setaria faberii
Method in brief: as §1

[11] = tested on: lambsquarters; test: Test C preemergence; format: in vivo, Chenopodium album
Method in brief: as §1

[12] = tested on: foxtail, giant; test: Test A preemergence; format: in vivo, Setaria faberii; details: preemergence; for Foxtail, Giant plant response rating (0 to 100 scale): 125 g ai/ha, visual injury approx. 10 days after treatment; for Foxtail, Giant plant response rating: 500 g ai/ha, visual injury after approx. 10 days, 0 to 100 scale (0 no effect, 100 complete control)
Method in brief: as §2

[13] = tested on: rice; test: Test B flood; format: in vivo, Oryza sativa; details: 250 g ai/ha, visual rating on 0 to 100 scale (0 no effect, 100 complete control), 13 to 15 days
Method in brief: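 Two-leaf-stage plants, pots flooded (3 cm above soil) and treated through the water, which stayed at that depth. After 13–15 days in greenhouse conditions, visual assessment versus controls: 0 is no effect, 100 complete control, dash means no result.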

[14] = 250 g ai/ha, scale 0 to 100 (0 no effect, 100 complete control)
[15] = 125 g ai/ha, scale 0 to 100, 0 no effect, 100 complete control
[16] = 125 g ai/ha, 0 to 100 scale, 0 no effect, 100 complete control
[17] = 500 g ai/ha, 0 to 100 scale (0 no effect, 100 complete control)
[18] = preemergence, 31 g ai/ha, visual rating, scale 0 to 100 (0 no effect, 100 complete control), 13 to 15 days
[19] = preemergence, 62 g ai/ha, scale 0 to 100 (0 no effect, 100 complete control), 13 to 15 days
[20] = preemergence, 125 g ai/ha, 13 to 15 days, scale 0 to 100, 0 = no effect, 100 = complete control
[21] = preemergence, 250 g ai/ha, scale 0 to 100, 0 is no effect, 100 is complete control
[22] = Preemergence, rate head not shown (block before 16 g ai/ha), scale 0 to 100

| Structure (SMILES) | Plant response rating (scale of 0 to 100 where 0 is no effect and 100 is complete control), Blackgrass [1] | Blackgrass plant response rating [1] | Plant response rating, Blackgrass [1, 14] | Plant response rating, Blackgrass [1, 15] | Wheat plant response rating (0 to 100 scale) [2] | Plant response rating (scale of 0 to 100 where 0 is no effect and 100 is complete control), Barnyardgrass [3] | Barnyardgrass plant response rating [3] | Plant response rating, Barnyardgrass [3, 14] | Plant response rating, Barnyardgrass [3, 15] | Plant response rating (scale of 0 to 100 where 0 is no effect and 100 is complete control), Crabgrass, Large [4] | Crabgrass, Large plant response rating [4] | Plant response rating, Crabgrass, Large [4, 14] | Plant response rating, Crabgrass, Large [4, 15] | Wheat plant response rating [5, 16] | Wheat plant response rating [5, 17] | Johnsongrass plant response rating [6, 19] | Plant response rating, Johnsongrass [6, 20] | Johnsongrass plant response rating [6, 21] | Plant response rating, Velvetleaf [7] | Velvetleaf plant response rating [7] | also measured |
| --- | --- | --- | --- | --- | --- | --- | --- | --- | --- | --- | --- | --- | --- | --- | --- | --- | --- | --- | --- | --- | --- |
| CCCc1cc(C(=O)NC(C)C)nn1Cc1ccnc(C(F)(F)F)c1 [Compound 186] | 5 | 10 | 60 | 10 | 90 | 5 | 10 | 55 | 10 | 5 | 5 | 80 | 20 | 0 | 90 | 98 | 100 | 100 | 80 | 55 | Wheat plant response rating [2]: 100; Johnsongrass plant response rating [6, 18]: 75; Plant response rating (scale of 0 to 100 where 0 is no effect and 100 is complete control), Nutsedge, Yellow [8]: 5; Nutsedge, Yellow plant response rating [8]: 5; Plant response rating, Nutsedge, Yellow [8, 14]: 15; Plant response rating, Nutsedge, Yellow [8, 15]: 5; Pigweed plant response rating (0 to 100 scale) [9]: 0; Pigweed plant response rating [9]: 0; Foxtail, Giant plant response rating [10, 18]: 100; Foxtail, Giant plant response rating [10, 19]: 100; Plant response rating, Foxtail, Giant [10, 20]: 100; Foxtail, Giant plant response rating [10, 21]: 100; Lambsquarters plant response rating [11, 18]: 100; Lambsquarters plant response rating [11, 19]: 100; Plant response rating, Lambsquarters [11, 20]: 100; Lambsquarters plant response rating [11, 21]: 100; Foxtail, Giant plant response rating (0 to 100 scale) [12]: 100; Foxtail, Giant plant response rating [12]: 100; Plant response rating, Rice [13]: 75 |
| CCCNC(=O)c1cc(OCC)n(Cc2ccnc(C(F)(F)F)c2)n1 [Compound 187] | 10 | 5 | 80 | 30 | 80 | 5 | 10 | 60 | 15 | 10 | 20 | 95 | 60 | 50 | 80 | 98 | 100 | 100 | 65 | 55 | Wheat plant response rating [2]: 100; Johnsongrass plant response rating [6, 18]: 75; Plant response rating (scale of 0 to 100 where 0 is no effect and 100 is complete control), Nutsedge, Yellow [8]: 5; Nutsedge, Yellow plant response rating [8]: 5; Plant response rating, Nutsedge, Yellow [8, 14]: 10; Plant response rating, Nutsedge, Yellow [8, 15]: 5; Pigweed plant response rating (0 to 100 scale) [9]: 0; Pigweed plant response rating [9]: 0; Foxtail, Giant plant response rating [10, 18]: 100; Foxtail, Giant plant response rating [10, 19]: 100; Plant response rating, Foxtail, Giant [10, 20]: 100; Foxtail, Giant plant response rating [10, 21]: 100; Lambsquarters plant response rating [11, 18]: 100; Lambsquarters plant response rating [11, 19]: 100; Plant response rating, Lambsquarters [11, 20]: 100; Lambsquarters plant response rating [11, 21]: 100; Foxtail, Giant plant response rating (0 to 100 scale) [12]: 100; Foxtail, Giant plant response rating [12]: 100; Plant response rating, Rice [13]: 45 |
| CCc1cc(C(=O)NCC(F)(F)F)nn1Cc1ccnc(SC(F)(F)F)c1 [Compound 214] | 5 | 5 | 50 | 10 | 80 | 5 | 5 | 65 | 30 | 5 | 5 | 55 | 20 | 80 | 90 | 40 | 75 | 90 | 75 | 20 | Johnsongrass plant response rating [6, 18]: 0; Plant response rating (scale of 0 to 100 where 0 is no effect and 100 is complete control), Nutsedge, Yellow [8]: 0; Nutsedge, Yellow plant response rating [8]: 10; Plant response rating, Nutsedge, Yellow [8, 14]: 5; Plant response rating, Nutsedge, Yellow [8, 15]: 5; Pigweed plant response rating (0 to 100 scale) [9]: 100; Foxtail, Giant plant response rating [10, 18]: 90; Foxtail, Giant plant response rating [10, 19]: 98; Plant response rating, Foxtail, Giant [10, 20]: 100; Foxtail, Giant plant response rating [10, 21]: 100; Lambsquarters plant response rating [11, 18]: 100; Lambsquarters plant response rating [11, 19]: 100; Plant response rating, Lambsquarters [11, 20]: 100; Lambsquarters plant response rating [11, 21]: 100; Foxtail, Giant plant response rating (0 to 100 scale) [12]: 100; Foxtail, Giant plant response rating [12]: 100; Plant response rating, Rice [13]: 60 |
| CCc1cc(C(=O)NC2CC2)nn1Cc1ccnc(Br)c1 [Compound 220] | 5 | 5 | 20 | 5 | 0 | 0 | 0 | 15 | 10 | 5 | 5 | 10 | 5 | 0 | 90 | 5 | 5 | 80 | 40 | 45 | Plant response rating, Johnsongrass [6, 22]: 10; Plant response rating (scale of 0 to 100 where 0 is no effect and 100 is complete control), Nutsedge, Yellow [8]: 0; Nutsedge, Yellow plant response rating [8]: 0; Plant response rating, Nutsedge, Yellow [8, 14]: 10; Plant response rating, Nutsedge, Yellow [8, 15]: 40; Pigweed plant response rating (0 to 100 scale) [9]: 100; Plant response rating, Foxtail, Giant [10, 22]: 10; Foxtail, Giant plant response rating [10, 19]: 75; Plant response rating, Foxtail, Giant [10, 20]: 100; Foxtail, Giant plant response rating [10, 21]: 100; Plant response rating, Lambsquarters [11, 22]: 60; Lambsquarters plant response rating [11, 19]: 98; Plant response rating, Lambsquarters [11, 20]: 100; Lambsquarters plant response rating [11, 21]: 100; Foxtail, Giant plant response rating (0 to 100 scale) [12]: 100; Foxtail, Giant plant response rating [12]: 100; Plant response rating, Rice [13]: 15 |

— patent US20150105252A1, “SUBSTITUTED PYRAZOLES AS HERBICIDES” (E I DU PONT DE NEMOURS AND COMPANY, priority 2013, published 2015)
